Reference: patent US8759011B2, “Assay system for determining binding of hydrophobic drugs” (Nederlandse Organisatie voor …, priority 2009, dated 2014)

Tested on: human plasma
Test: plasma binding by partition extraction in dimethylsiloxane-coated 96-well plates
Assay type: in vitro ADME
Conditions: one plate
Procedure: 96-wells deepwell plates (lot 1450-401 Perkin-Elmer Lifesciences) were coated with dimethylsiloxane by making the solutions A-H here below in n-hexane. The used dimethylsiloxane (Silicone rubber, GE Silicones, Bergen op Zoom, The Netherlands) has a density of 1.06. Solution H contains 9.54 g dimethylsiloxane in 300 ml n-hexane.
From solutions A-H 100 μl is pipetted in row A-H of each plate. Plates were dried to air for minimally 18 hours (overnight).
To each dilution of plasma (solutions 1-12) an identical amount of the compound to be tested is added (about […]/200 μl solution). […] The solutions are incubated with the compound overnight at 4°.
The plasma solutions 1-12 are added to corresponding columns 1-12 of each plate (200 μl/well). Also 200 μl was added to a separate vessel to be able to correct for (plasma concentration dependent) solubilization. The next day the plates are emptied, washed once with aqua bidest and dried. When sufficient dry in all wells 200 μl counting solution (Optiphase Hisafe 2, Perkin Elmer Lifesciences) is added and the plates are covered. After incubation for minimally 4 hours under gently shaking the radioactivity in each plate is determined using liquid scintillation counting with a MicroBeta device (Perkin Elmer).
Additionally a total count was determined for each well. The total count is the count in the polymer coating+the count in the remaining fluid. The latter was determined by isolating 25 μl from solution in each well prior to emptying, and mixing with Optiphase (Perkin Elmer) followed by liquid scintillation counting.
1. For each datapoint for which the total count was determined, the recovery of total radioactivity was determined by comparing with the counts of the reference spiking solution. Cells with a total recovery <75% were excluded from further data analysis.
2. From all rows containing polymer, the a-specific binding, i.e. the corresponding counts from the row without polymer, was substracted.
3. Curve fitting was applied using the following formula for each cell:
Predicted counts in coating=Tc/((1/ffp+1/fp−1)×(fp×Vw)/Kpdms/Vp)), where
The above formula was fitted using ffp and Kpdms target parameters to be optimized using the least squares regression method over all wells that were included in the data analysis, by calculating the squared difference between the measured counts in the coating and the predicted counts in the coating. Results

With `CC(C)c1nc(CN(C)C(=O)N[C@H](C(=O)N[C@@H](Cc2ccccc2)C[C@H](O)[C@H](Cc2ccccc2)NC(=O)OCc2cncs2)C(C)C)cs1` [Ritonavir] the “counts in the polymer coating” value (plasma 0 ml/ml, coating 0 nl) was 2561, the “counts in the polymer coating” value (plasma 0 ml/ml, coating 4.1 nl) was 3274 and the “counts in the polymer coating” value (plasma 0 ml/ml, coating 10.2 nl) was 4727. For the same compound, the “counts in the polymer coating” value (plasma 0 ml/ml, coating 25.6 nl) was 6222, the “counts in the polymer coating” value (plasma 0 ml/ml, coating 64 nl) was 6561 and the “counts in the polymer coating” value (plasma 0 ml/ml, coating 160 nl) was 8997. For the same compound, the “counts in the polymer coating” value (plasma 0 ml/ml, coating 400 nl) was 9656, the “counts in the polymer coating” value (plasma 0 ml/ml, coating 1000 nl) was 10194 and the “counts in the polymer coating” value (plasma 0.0005 ml/ml, coating 0 nl) was 408. The “counts in the polymer coating” value (plasma 0.0005 ml/ml, coating 4.1 nl) was 3323, the “counts in the polymer coating” value (plasma 0.0005 ml/ml, coating 10.2 nl) was 5936 and the “counts in the polymer coating” value (plasma 0.0005 ml/ml, coating 25.6 nl) was 9146. The “counts in the polymer coating” value (plasma 0.0005 ml/ml, coating 64 nl) was 14297, the “counts in the polymer coating” value (plasma 0.0005 ml/ml, coating 160 nl) was 16590 and the “counts in the polymer coating” value (plasma 0.0005 ml/ml, coating 400 nl) was 17305. For the same compound, the “counts in the polymer coating” value (plasma 0.0005 ml/ml, coating 1000 nl) was 17396, the “counts in the polymer coating” value (plasma 0.0008 ml/ml, coating 0 nl) was 355 and the “counts in the polymer coating” value (plasma 0.0008 ml/ml, coating 4.1 nl) was 3033. For the same compound, the “counts in the polymer coating” value (plasma 0.0008 ml/ml, coating 10.2 nl) was 6243, the “counts in the polymer coating” value (plasma 0.0008 ml/ml, coating 25.6 nl) was 9649 and the “counts in the polymer coating” value (plasma 0.0008 ml/ml, coating 64 nl) was 15214. For the same compound, the “counts in the polymer coating” value (plasma 0.0008 ml/ml, coating 160 nl) was 17344, the “counts in the polymer coating” value (plasma 0.0008 ml/ml, coating 400 nl) was 18129 and the “counts in the polymer coating” value (plasma 0.0008 ml/ml, coating 1000 nl) was 18254. The “counts in the polymer coating” value (plasma 0.001 ml/ml, coating 0 nl) was 368, the “counts in the polymer coating” value (plasma 0.001 ml/ml, coating 4.1 nl) was 2677 and the “counts in the polymer coating” value (plasma 0.001 ml/ml, coating 10.2 nl) was 6668. For the same compound, the “counts in the polymer coating” value (plasma 0.001 ml/ml, coating 25.6 nl) was 10037, the “counts in the polymer coating” value (plasma 0.001 ml/ml, coating 64 nl) was 15293 and the “counts in the polymer coating” value (plasma 0.001 ml/ml, coating 160 nl) was 17749. For the same compound, the “counts in the polymer coating” value (plasma 0.001 ml/ml, coating 400 nl) was 18063, the “counts in the polymer coating” value (plasma 0.001 ml/ml, coating 1000 nl) was 18984 and the “counts in the polymer coating” value (plasma 0.003 ml/ml, coating 0 nl) was 250. The “counts in the polymer coating” value (plasma 0.003 ml/ml, coating 4.1 nl) was 2391, the “counts in the polymer coating” value (plasma 0.003 ml/ml, coating 10.2 nl) was 6779 and the “counts in the polymer coating” value (plasma 0.003 ml/ml, coating 25.6 nl) was 9818. The “counts in the polymer coating” value (plasma 0.003 ml/ml, coating 64 nl) was 15161, the “counts in the polymer coating” value (plasma 0.003 ml/ml, coating 160 nl) was 18112 and the “counts in the polymer coating” value (plasma 0.003 ml/ml, coating 400 nl) was 19067. For the same compound, the “counts in the polymer coating” value (plasma 0.003 ml/ml, coating 1000 nl) was 19314, the “counts in the polymer coating” value (plasma 0.005 ml/ml, coating 0 nl) was 266 and the “counts in the polymer coating” value (plasma 0.005 ml/ml, coating 4.1 nl) was 2725. The “counts in the polymer coating” value (plasma 0.005 ml/ml, coating 10.2 nl) was 7054, the “counts in the polymer coating” value (plasma 0.005 ml/ml, coating 25.6 nl) was 10234 and the “counts in the polymer coating” value (plasma 0.005 ml/ml, coating 64 nl) was 15908. For the same compound, the “counts in the polymer coating” value (plasma 0.005 ml/ml, coating 160 nl) was 18628, the “counts in the polymer coating” value (plasma 0.005 ml/ml, coating 400 nl) was 19174 and the “counts in the polymer coating” value (plasma 0.005 ml/ml, coating 1000 nl) was 19676. The “counts in the polymer coating” value (plasma 0.008 ml/ml, coating 0 nl) was 262, the “counts in the polymer coating” value (plasma 0.008 ml/ml, coating 4.1 nl) was 2605 and the “counts in the polymer coating” value (plasma 0.008 ml/ml, coating 10.2 nl) was 5943. For the same compound, the “counts in the polymer coating” value (plasma 0.008 ml/ml, coating 25.6 nl) was 9899, the “counts in the polymer coating” value (plasma 0.008 ml/ml, coating 64 nl) was 15892 and the “counts in the polymer coating” value (plasma 0.008 ml/ml, coating 160 nl) was 18582. The “counts in the polymer coating” value (plasma 0.008 ml/ml, coating 400 nl) was 19405, the “counts in the polymer coating” value (plasma 0.008 ml/ml, coating 1000 nl) was 19541 and the “counts in the polymer coating” value (plasma 0.01 ml/ml, coating 0 nl) was 260. For the same compound, the “counts in the polymer coating” value (plasma 0.01 ml/ml, coating 4.1 nl) was 2644, the “counts in the polymer coating” value (plasma 0.01 ml/ml, coating 10.2 nl) was 6466 and the “counts in the polymer coating” value (plasma 0.01 ml/ml, coating 25.6 nl) was 9247. The “counts in the polymer coating” value (plasma 0.01 ml/ml, coating 64 nl) was 15112, the “counts in the polymer coating” value (plasma 0.01 ml/ml, coating 160 nl) was 18647 and the “counts in the polymer coating” value (plasma 0.01 ml/ml, coating 400 nl) was 19137. The “counts in the polymer coating” value (plasma 0.01 ml/ml, coating 1000 nl) was 19454, the “counts in the polymer coating” value (plasma 0.02 ml/ml, coating 0 nl) was 208 and the “counts in the polymer coating” value (plasma 0.02 ml/ml, coating 4.1 nl) was 2135. The “counts in the polymer coating” value (plasma 0.02 ml/ml, coating 10.2 nl) was 5288, the “counts in the polymer coating” value (plasma 0.02 ml/ml, coating 25.6 nl) was 8673 and the “counts in the polymer coating” value (plasma 0.02 ml/ml, coating 64 nl) was 14665. For the same compound, the “counts in the polymer coating” value (plasma 0.02 ml/ml, coating 160 nl) was 18017, the “counts in the polymer coating” value (plasma 0.02 ml/ml, coating 400 nl) was 19188 and the “counts in the polymer coating” value (plasma 0.02 ml/ml, coating 1000 nl) was 19218. For the same compound, the “counts in the polymer coating” value (plasma 0.03 ml/ml, coating 0 nl) was 195, the “counts in the polymer coating” value (plasma 0.03 ml/ml, coating 4.1 nl) was 1925 and the “counts in the polymer coating” value (plasma 0.03 ml/ml, coating 10.2 nl) was 4066. For the same compound, the “counts in the polymer coating” value (plasma 0.03 ml/ml, coating 25.6 nl) was 6969, the “counts in the polymer coating” value (plasma 0.03 ml/ml, coating 64 nl) was 13475 and the “counts in the polymer coating” value (plasma 0.03 ml/ml, coating 160 nl) was 17384. For the same compound, the “counts in the polymer coating” value (plasma 0.03 ml/ml, coating 400 nl) was 18707, the “counts in the polymer coating” value (plasma 0.03 ml/ml, coating 1000 nl) was 19112 and the “counts in the polymer coating” value (plasma 0.04 ml/ml, coating 0 nl) was 156. The “counts in the polymer coating” value (plasma 0.04 ml/ml, coating 4.1 nl) was 1501, the “counts in the polymer coating” value (plasma 0.04 ml/ml, coating 10.2 nl) was 3633 and the “counts in the polymer coating” value (plasma 0.04 ml/ml, coating 25.6 nl) was 5932. For the same compound, the “counts in the polymer coating” value (plasma 0.04 ml/ml, coating 64 nl) was 12160, the “counts in the polymer coating” value (plasma 0.04 ml/ml, coating 160 nl) was 16322 and the “counts in the polymer coating” value (plasma 0.04 ml/ml, coating 400 nl) was 18174. The “counts in the polymer coating” value (plasma 0.04 ml/ml, coating 1000 nl) was 18716, the “counts in the polymer coating” value (plasma 0.05 ml/ml, coating 0 nl) was 124 and the “counts in the polymer coating” value (plasma 0.05 ml/ml, coating 4.1 nl) was 1143. For the same compound, the “counts in the polymer coating” value (plasma 0.05 ml/ml, coating 10.2 nl) was 2760, the “counts in the polymer coating” value (plasma 0.05 ml/ml, coating 25.6 nl) was 5080 and the “counts in the polymer coating” value (plasma 0.05 ml/ml, coating 64 nl) was 10938. The “counts in the polymer coating” value (plasma 0.05 ml/ml, coating 160 nl) was 16100, the “counts in the polymer coating” value (plasma 0.05 ml/ml, coating 400 nl) was 17730 and the “counts in the polymer coating” value (plasma 0.05 ml/ml, coating 1000 nl) was 18325.
